Results from the METLIN SMRT retention time set (Domingo-Almenara et al. 2019).

Experiment: gradient 5% acetonitrile 3 min, to 50% in 2 min, to 85% in 15 min, held 3 min, 100 µL/min
Conditions: column: Zorbax Extend-C18 2.1 x 50 mm; eluents: water / acetonitrile, 0.1% formic acid
In short: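 Retention time was recorded from adduct peaks, which were picked computationally and each inspected manually. Pure standards ran in mixtures of ~100 molecules on HPLC coupled to a quadrupole time-of-flight mass spectrometer, in positive and negative ionization mode, through a Zorbax Extend-C18 column (2.1 × 50 mm, 1.8 μm) at 100 μL/min. Eluents were water and acetonitrile, each with 0.1% formic acid.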

Compound	RP-LC retention time [s]
CCOC(=O)c1c(C)[nH]c(C(=O)N2CCC(CC(=O)NCc3cccc(C)c3)CC2)c1C	820
COc1cccc(NC(=O)c2cnc3c(c2)c(=O)n(C)c(=O)n3C)c1	795
CCCN1C(=O)C2CCC(=O)N2c2ccc(C(=O)N3CCN(CC)CC3)cc21 (stereo not drawn)	561
CC(C)CN1C(=O)c2cccn2CC1C(=O)NCc1ccc2c(c1)OCO2 (stereo not drawn)	676
CC(=O)N1c2ccc(S(=O)(=O)N3CCCC3)cc2CC1C(=O)NCCCN1CCCCC1 (stereo not drawn)	626
CCC1CCCCN1CCCNC(=O)CCc1cc2ccc(C)cc2[nH]c1=O (stereo not drawn)	596
Cn1c(=O)oc2cc(-c3noc(CCc4ccccc4)n3)ccc21	1030
COc1cccc(-c2csc(-c3nnn(-c4cccc(OC)c4)c3N)n2)c1	1110
C[C@H](N)Cc1cccc(C(F)(F)F)c1	655
CCOC(=O)N1CCC(c2nnc(-c3ccco3)s2)CC1	728
O=C(NCCc1ccccc1)N1CCN(c2cnn3cnnc3c2)CC1	615
COCC1(O)CCOC2(CCN(Cc3ccccc3F)CC2)C1 (stereo not drawn)	544
Nc1nnc(SCc2nnc(-c3cccc(F)c3)o2)s1	646
CCCC[C@H]1C(=O)O[C@H](C)[C@H](NC(=O)c2cccc(NC=O)c2OC)C(=O)O[C@@H](C)[C@@H]1OC(=O)CC(C)C	1190
CC1CCCN(Cc2nc(-c3ccc(N(C)Cc4ccccc4)nc3)no2)C1 (stereo not drawn)	734
COC(=O)c1c(NCCc2cccs2)c2cccc(Cl)c2[nH]c1=O	823
CCOC(=O)CNC(=O)NCc1ccc2ncccc2c1	596
CCCNc1cc(N2CCC(CCC(=O)Nc3ccc4c(c3)OCCO4)CC2)ncn1	682
COC(=O)c1ccc(NC(=O)c2oc(C)nc2C)cc1	658
COc1ccc(CCN2CC(=O)N(c3cccc(C)c3)[C@@H]3CS(=O)(=O)C[C@@H]32)cc1	830
CCn1c(C)c(-c2nc(C3CC3)no2)c(S(=O)(=O)NCC(C)C)c1C	930
COc1ccc(-c2nc(C)cc(C)c2CNC(=O)c2ccc3c(c2)OCO3)cc1	632
Cc1nc2nc(-c3ccccc3)nn2c(C)c1CC(=O)N1CCCCC1	735
NC(=O)C1(N2CCCCC2)CCN(C(=O)c2c(-c3ccccc3)nnc3ccccc23)CC1	588
Cc1ccc2c(c1)N(C(=O)CCC(=O)NCCCN1CCC(N3CCCCC3)CC1)CC(C)O2 (stereo not drawn)	576
COc1ccc(OC)c(CNC(=O)COc2nc(C)nc3oc(C)c(C)c23)c1	866

Compound	RP-LC retention time [s]
COc1ccc(/C=C/c2nc(-c3cccc(-c4ccnn4C)c3)no2)cc1OC	1050
Cc1cnc(C2CC2)n1C1CCN(C(=O)C2(c3ccccc3)CC2)CC1	636
Cc1cc(N(C)C)nc(N2CCN(S(=O)(=O)c3ccc(-c4ccccc4)cc3)CC2)n1	814
Cn1nccc1-c1cccc(-c2noc(-c3cncc(Br)c3)n2)c1	1100
CC(C)n1c(N2CCN(C(=O)c3ccncc3)CC2)cc(=O)n(C(C)C)c1=O	601
COc1cccc(-c2nc(C3CCN(S(=O)(=O)c4ccc(C)c(C)c4)CC3)no2)c1	1180
COCCCNC(=O)Cn1c(=O)n(-c2ccccc2)c2ncccc21	650
CCOc1ccc(CNC(=O)c2cc3c(=O)n(CC)c4ccccc4n3n2)cc1OC	1180
CC(C)Cn1c(=O)c2ccccc2n(Cc2nc(-c3cccc(Cl)c3)no2)c1=O	1250
O=C(Nc1nc(-c2cccnc2)cs1)c1ccc(Br)s1	654
COc1cc(OC)cc(C(=O)Nc2nc(-c3ccc4c(c3)N(C)C(=O)C(C)O4)cs2)c1 (stereo not drawn)	1040
CCOC(=O)c1nc(Nc2ccc(C(=O)OC(C)C)cc2)c2ccccc2n1	989
Cc1ccc(-c2noc(Cc3nnc(-c4cccc(F)c4)o3)n2)cc1	1070
Cc1ccc2nc(Cl)cc(=O)n2c1	740
CCn1ncn2cc(S(=O)(=O)Nc3ccc(F)c(F)c3)cc2c1=O	884
CCc1noc(NC(C)=O)c1-c1ccc(OC)c(S(=O)(=O)Nc2ccc(C)cc2)c1	784
CCCN1C(=O)CCc2c(C)nc(-c3ccc(C)cc3)nc21	1150
Cc1ncsc1CN1CCC2(CC1)c1[nH]c3ccccc3c1CCN2C	538
CN(Cc1nc2ccccc2n1CCc1ccccc1)C(=O)c1ccco1	706
Cc1ccccc1CSc1nnc2c(S(=O)(=O)N3CCCC3)cccn12	861
OC[C@@H]1CNC[C@H]1C1CCN(Cc2ccc(Cl)c(F)c2)CC1	542
O=C1N(c2ccccc2)CC12CCN(S(=O)(=O)Cc1ccccc1)CC2	654
COc1ccc(-c2nc(C)cc(C)c2CNS(=O)(=O)c2cccc(OC)c2)cc1	656
CC(C)(Cc1c[nH]c2ccc(Cl)cc12)NCCOc1ccccc1OCC1CC1	953
CN1C(=O)[C@H]2CN(Cc3ccccc3)C[C@H]2C1=O	546

More lines, now with the values ahead:

RP-LC retention time [s]	Compound
789	O=C(c1ccccc1Cl)N1CCN(c2cc(-c3cccs3)[nH]n2)CC1
821	CCOC(=O)c1cn(CC(=O)Nc2ccc(Br)cc2)c2nc(C)ccc2c1=O
627	COc1cc2c(Nc3ccc(NC(=O)c4ccccc4)cc3)ncnc2cc1OCCCN1CCOCC1
898	CCc1ccc(CNC(=O)CC2CCN(C(=O)c3[nH]c(C)c(C)c3C)CC2)cc1
891	COc1cccc(N2CCN(c3cc(SCC(=O)NCc4ccccc4)ncn3)CC2)c1
746	CCNc1cc(C)nc(N2CCN(C(=O)c3ccc(-c4ccccc4)cc3)CC2)n1
803	Cc1ccc(CNC(=O)c2cn(C)c3c(c(C)nn3-c3ccc(F)cc3)c2=O)o1
847	CCn1c(N2CCCC(C(=O)NCCCN3CCCc4ccccc43)C2)cc(=O)n(C)c1=O (stereo not drawn)
741	Cc1nnc(N2CCCC(C(=O)N3CCCCC3)C2)c2nn(-c3ccc(Cl)cc3)c(C)c12 (stereo not drawn)
741	CCOC(=O)c1noc2nc(C)nc(NCC3CCN(CCc4ccc(F)cc4)CC3)c12
919	CCOC(=O)C1=C(CN2CCN(c3ccccn3)CC2)NC(=O)NC1c1cccs1 (stereo not drawn)
806	COc1ccc(C(=O)NC2CCN(c3ccc(F)cc3)C2=O)cc1F (stereo not drawn)
983	CC1(C(=O)NCc2ccccc2)CCCN(C(=O)Nc2cccc(Br)c2)C1 (stereo not drawn)
651	COc1ccc(NC(=O)Nc2cc(-c3cn4cccnc4n3)ccc2OC)cc1
657	COCCN(Cc1ccc(Cl)cc1)Cc1cc(=O)n2ccc(C)cc2n1
1020	CCCCNC(=O)Cn1nc(C)c2nn(-c3ccc(Cl)cc3)c(-n3cccc3)c2c1=O
834	Cc1cccc(NC(=O)N2CCC(C)(C(=O)NCc3ccc(F)cc3)CC2)c1C
783	CN1c2cc(F)ccc2C(=O)NC12CCN(C(=O)Cc1ccccc1Cl)CC2
1120	CC1CCN(c2cc3c(cc2NC(=O)COc2ccc(Cl)cc2)n(C)c(=O)c(=O)n3C)CC1

RP-LC retention time [s]	Compound
1170	COc1cccc(CNC(=O)Nc2ccc(-c3nc(-c4ccc(C)cc4C)co3)cc2)c1
894	Cc1ccc(N2CCC(NS(=O)(=O)c3ccccc3F)C2=O)cc1 (stereo not drawn)
670	CC1(C(=O)NCc2ccc(F)cc2)Cn2cnc(C(=O)NC3CC3)c2C(=O)N1C1CC1 (stereo not drawn)
1220	Cc1ccc(-n2c(SCc3nc(-c4ccc(F)cc4)no3)nc3cc4c(cc3c2=O)OCO4)cc1
579	COc1ccc(C(=O)N2CCCN(c3nnc4ccc(Cl)cn34)CC2)cn1
822	CCc1noc(NC(C)=O)c1-c1ccc(C)c(S(=O)(=O)Nc2ccc(F)cc2)c1
960	Cc1ccc(NC(=O)C2CCCN(c3ccc(=O)n(-c4cccc(Cl)c4)n3)C2)cc1C (stereo not drawn)
1270	Cc1ccc(S(=O)(=O)N2CCCC2c2nc(-c3cccc(Cl)c3)no2)cc1C (stereo not drawn)
756	Cc1csc(-c2ccc(N3CCN(C(=O)c4cccc5[nH]ccc45)CC3)nc2)n1
730	O=C(Nc1ccccc1)C1CC(=O)N(c2n[nH]c3cccc(F)c23)C1 (stereo not drawn)
1090	CC(C)c1ccc(NC(=O)Cn2nc(N3CCCC3)c3ccccc3c2=O)cc1
903	O=C1CCc2cc(S(=O)(=O)NCCc3ccc(Cl)cc3)cc3c2N1CCC3
1110	COc1ccc(S(=O)(=O)N2CCC(c3cnn(-c4ccc(C)cc4)c3)CC2)cc1
605	Cc1ccc(N2CC(c3nc(-c4cccc(-c5ccnn5C)c4)no3)CC2=O)cc1 (stereo not drawn)
1110	O=C(Nc1ccc(Cl)cc1)C1CCCN(c2nc3ccsc3c(=O)n2Cc2ccc(F)cc2)C1 (stereo not drawn)
576	Cc1ccc2c(Nc3ccc(C#N)cc3)c(C(=O)N3CCCC3)cnc2n1
734	COc1ccc(N2CCN(c3nccc4ccc(C(=O)NC5CCCC5)cc34)CC2)cc1
658	Cn1cc(C(=O)Nc2ccc(N3CCOCC3)cc2)c2cccnc21
